According to ChEMBL document CHEMBL1136764, “N6-cyclopentyl-2-(3-phenylaminocarbonyltriazene-1-yl)adenosine (TCPA), a very selective agonist with high affinity for the human adenosine A1 receptor” (J Med Chem, 2003):

Experiments:
[1] = biological target: T1, Adenosine receptor A2a (Homo sapiens, UniProt P29274); assay: Percent displacement of [3H]ZM-241,385 from human adenosine A2A receptor at 10 uM
[2] = biological target: T2, Adenosine receptor A2b (Homo sapiens) (UniProt P29275); assay: In vitro binding affinity towards human adenosine A2B receptor by [3H]DPCPX displacement at 10 uM.
T2 sequence (whole entry): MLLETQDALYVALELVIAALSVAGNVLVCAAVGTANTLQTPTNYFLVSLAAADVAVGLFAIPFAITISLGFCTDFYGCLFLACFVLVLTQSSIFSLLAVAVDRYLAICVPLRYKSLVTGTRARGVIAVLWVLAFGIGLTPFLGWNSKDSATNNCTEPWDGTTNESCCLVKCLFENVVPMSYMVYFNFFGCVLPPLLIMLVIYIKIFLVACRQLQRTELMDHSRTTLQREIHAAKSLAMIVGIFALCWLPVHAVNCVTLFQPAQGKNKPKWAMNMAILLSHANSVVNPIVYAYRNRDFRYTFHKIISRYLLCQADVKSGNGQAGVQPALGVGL

[3] = biological target: T3, Adenosine receptor A1 (Homo sapiens) (UniProt P30542); assay: Percent displacement of [3H]DPCPX from human adenosine A1 receptor at 10 uM
T3 sequence (whole entry): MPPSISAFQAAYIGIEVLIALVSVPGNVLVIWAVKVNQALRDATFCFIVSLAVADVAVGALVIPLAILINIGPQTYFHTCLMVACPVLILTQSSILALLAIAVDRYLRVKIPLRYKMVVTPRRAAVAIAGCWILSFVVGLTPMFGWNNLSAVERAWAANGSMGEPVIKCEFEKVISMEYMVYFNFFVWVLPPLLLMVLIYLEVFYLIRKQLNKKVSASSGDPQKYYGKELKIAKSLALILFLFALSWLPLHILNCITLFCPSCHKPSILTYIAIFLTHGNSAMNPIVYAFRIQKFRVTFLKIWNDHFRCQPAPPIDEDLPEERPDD

[4] = biological target: T4, Adenosine receptor A3 (Homo sapiens, UniProt P0DMS8); assay: Inhibition of [125 I]-IABMECA binding to human adenosine A3 receptor
T4 sequence (P0DMS8 whole entry): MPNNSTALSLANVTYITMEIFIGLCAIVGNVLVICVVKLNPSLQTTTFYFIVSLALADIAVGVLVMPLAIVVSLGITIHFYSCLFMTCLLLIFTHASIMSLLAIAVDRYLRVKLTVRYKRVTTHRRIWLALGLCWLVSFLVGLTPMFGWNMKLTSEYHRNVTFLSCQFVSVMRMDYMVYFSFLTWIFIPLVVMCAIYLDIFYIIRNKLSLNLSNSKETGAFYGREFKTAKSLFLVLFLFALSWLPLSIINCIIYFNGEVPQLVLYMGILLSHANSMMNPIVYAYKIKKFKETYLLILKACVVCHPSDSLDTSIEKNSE

[5] = biological target: T5, Adenosine receptor A1 (Homo sapiens, UniProt P30542)
T5 sequence (P30542 whole entry): T3 sequence (whole entry)
Description: In vitro binding affinity towards human adenosine A1 receptor by [3H]DPCPX displacement.

[6] = biological target: T3, Adenosine receptor A1 (Homo sapiens); assay: Relative potency for human adenosine A1 receptor (Ki value)
[7] = biological target: T6, Adenosine receptor A3 (Homo sapiens) (UniProt P0DMS8); assay: Relative potency for human adenosine A3 receptor (Ki value)
T6 sequence (whole entry): T4 sequence (P0DMS8 whole entry)

[8] = biological target: T1, Adenosine receptor A2a
Description: Tested for binding affinity towards human adenosine A2A receptor using [3H]ZM-241385 as radioligand

[9] = biological target: Adenosine receptors; A1 & A3 (Homo sapiens) (UniProt P30542+P0DMS8); assay: Selectivity for adenosine A1 and A3 receptors; type: protein assay
[10] = biological target: T5, Adenosine receptor A1; assay: Inhibition of cAMP formation in CHO cells expressing human adenosine A1 receptor; type: cell-based
[11] = biological target: T4, Adenosine receptor A3; assay: Binding affinity for human Adenosine A3 receptor using [125 I]-IABMECA
[12] = biological target: T1, Adenosine receptor A2a; assay: Binding affinity for human Adenosine A2A receptor using [3H]ZM-241385
[13] = biological target: T2, Adenosine receptor A2b (Homo sapiens); assay: Binding affinity for human adenosine A2B receptor using [3H]DPCPX at 10 uM as percent displacement
[14] = biological target: T1, Adenosine receptor A2a; assay: Binding affinity for human adenosine A2A receptor using [3H]ZM-241385; insoluble
[15] = biological target: T2, Adenosine receptor A2b (Homo sapiens); assay: Percent displacement of [3H]DPCPX from human adenosine A2B receptor at 10 uM; insoluble
[16] = biological target: T6, Adenosine receptor A3 (Homo sapiens); assay: Binding affinity for human adenosine A3 receptor using [125 I]-IABMECA; insoluble
[17] = biological target: T3, Adenosine receptor A1 (Homo sapiens); assay: Binding affinity for human adenosine A1 receptor using [3H]DPCPX; insoluble

T1 sequence (P29274 whole entry): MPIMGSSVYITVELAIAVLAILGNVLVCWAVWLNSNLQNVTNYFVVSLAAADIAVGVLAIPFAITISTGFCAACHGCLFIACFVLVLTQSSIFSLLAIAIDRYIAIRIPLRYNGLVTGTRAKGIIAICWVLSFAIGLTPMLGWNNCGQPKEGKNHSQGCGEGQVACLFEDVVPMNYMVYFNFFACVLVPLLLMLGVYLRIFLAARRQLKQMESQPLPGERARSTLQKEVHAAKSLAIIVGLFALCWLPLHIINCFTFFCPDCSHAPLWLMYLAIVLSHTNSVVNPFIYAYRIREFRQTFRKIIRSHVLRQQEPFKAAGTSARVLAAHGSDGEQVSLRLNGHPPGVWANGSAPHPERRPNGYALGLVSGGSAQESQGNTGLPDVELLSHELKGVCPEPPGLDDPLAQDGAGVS

Row | Structure (SMILES) | Displacement [2] | Ki [4] | Ki [5] | Ki [8] | Ki [11] | Ki [12] | other results
1 | Nc1nc(/N=N/NC(=O)Oc2ccccc2)nc2c1ncn2C1O[C@H](CO)[C@@H](O)[C@H]1O (some centres undefined) | 6% | – | – | – | – | – | Displacement [1]: 38.9%; Displacement [3]: 43%
2 | O=C(N/N=N/c1nc(NC2CCCC2)c2ncn([C@@H]3O[C@H](CO)[C@@H](O)[C@H]3O)c2n1)Nc1ccccc1 | 10% | 600 nM | 2.8 nM | 210 nM | – | – | Relative potency [6]: 1; Relative potency [7]: 1; Selectivity [9]: 214; IC50 [10]: 1.5 nM
3 | NC(=O)/N=N/Nc1nc(Nc2ccccc2)c2ncn([C@@H]3O[C@H](CO)[C@@H](O)[C@H]3O)c2n1 | 10% | 175 nM | 204 nM | – | – | – | Displacement [1]: 17.7%
4 | COc1ccc(NC(=O)/N=N/Nc2nc(N)c3ncn([C@@H]4O[C@H](CO)[C@@H](O)[C@H]4O)c3n2)cc1 | 15% | 73 nM | 20 nM | 25 nM | – | – | –
5 | Nc1nc(/N=N/NC(=O)Nc2ccc(Cl)cc2)nc2c1ncn2[C@@H]1O[C@H](CO)[C@@H](O)[C@H]1O | 21% | – | 15 nM | – | 39 nM | – | Displacement [1]: 4.4%
6 | Nc1nc(/N=N/NC(=O)Nc2ccccc2Cl)nc2c1ncn2[C@@H]1O[C@H](CO)[C@@H](O)[C@H]1O | 30% | 179 nM | 23 nM | 45 nM | – | – | –
7 | NC(=O)/N=N/Nc1nc(N)c2ncn([C@@H]3O[C@H](CO)[C@@H](O)[C@H]3O)c2n1 | 9% | – | 140 nM | – | 209 nM | 88 nM | –
8 | O=C(N/N=N/c1nc(Nc2ccccc2)c2ncn([C@@H]3O[C@H](CO)[C@@H](O)[C@H]3O)c2n1)Nc1ccccc1 | 9% | 90 nM | 430 nM | 24.3 nM | – | – | –
9 | Nc1nc(/N=N/c2ccccc2)nc2c1ncn2[C@@H]1O[C@H](CO)[C@@H](O)[C@H]1O | – | – | – | – | 110 nM | 180 nM | Displacement [13]: 11%
10 | Nc1nc(/N=N/NC(=O)Nc2ccccc2)nc2c1ncn2[C@@H]1O[C@H](CO)[C@@H](O)[C@H]1O | 54% | – | 6.1 nM | – | 110 nM | 25 nM | –
11 | O=C(N/N=N/c1nc(NCC(c2ccccc2)c2ccccc2)c2ncn([C@@H]3O[C@H](CO)[C@@H](O)[C@H]3O)c2n1)Nc1ccccc1 | 10% | 140 nM | 3.1 nM | 980 nM | – | – | –
12 | Nc1nc(/N=N/NC(=O)Nc2nccs2)nc2c1ncn2[C@@H]1O[C@H](CO)[C@@H](O)[C@H]1O | 79% | 610 nM | 24 nM | 25 nM | – | – | –
13 | Nc1nc(/N=N/NC(=O)Nc2cccc(Cl)c2)nc2c1ncn2C1O[C@H](CO)[C@@H](O)[C@H]1O (some centres undefined) | 64% | – | – | – | – | – | Displacement [1]: 29.9%
14 | Nc1nc(N=NNC(=O)Nc2cccc(Cl)c2)nc2c1ncn2C1O[C@H](CO)[C@@H](O)[C@H]1O (some centres undefined) | – | – | 15 nM | – | 59 nM | – | –
15 | Nc1nc(/N=N/NC(=O)Nc2cccc(C(F)(F)F)c2)nc2c1ncn2C1O[C@H](CO)[C@@H](O)[C@H]1O (some centres undefined) | – | – | – | – | – | – | Other [14]: Insoluble; Other [15]: Insoluble; Other [16]: Insoluble; Other [17]: Insoluble
16 | Nc1nc(/N=N/NC(=O)c2ccccc2)nc2c1ncn2[C@@H]1O[C@H](CO)[C@@H](O)[C@H]1O | – | – | 1900 nM | – | 190 nM | 1000 nM | Displacement [13]: 8%
17 | CCNC(=O)/N=N/Nc1nc(N)c2ncn([C@@H]3O[C@H](CO)[C@@H](O)[C@H]3O)c2n1 | 15% | – | 45 nM | – | 113 nM | 19 nM | –
18 | Nc1nc(NN=NC(=O)Oc2ccccc2)nc2c1ncn2C1O[C@H](CO)[C@@H](O)[C@H]1O (some centres undefined) | – | 577 nM | – | – | – | – | –
19 | COc1ccccc1NC(=O)/N=N/Nc1nc(N)c2ncn([C@@H]3O[C@H](CO)[C@@H](O)[C@H]3O)c2n1 | 18% | 81 nM | 20 nM | 125 nM | – | – | –
20 | Nc1nc(/N=N/NC(=O)NCc2ccccc2)nc2c1ncn2[C@@H]1O[C@H](CO)[C@@H](O)[C@H]1O | 9% | 147 nM | 42 nM | 25 nM | – | – | –
21 | Nc1nc(N=O)nc2c1ncn2[C@@H]1O[C@H](CO)[C@@H](O)[C@H]1O | – | – | – | – | 580 nM | 720 nM | Displacement [3]: 40%; Displacement [13]: 14%
22 | OC[C@H]1O[C@@H](n2cnc3c(NC4CCCC4)nc(Cl)nc32)[C@H](O)[C@@H]1O | – | – | – | 639 nM | – | – | –
23 | Nc1nc(/N=N/NC(=O)NC2CCCCC2)nc2c1ncn2[C@@H]1O[C@H](CO)[C@@H](O)[C@H]1O | 6% | – | 5.8 nM | – | 63 nM | 25 nM | –
